Experimental data reported in US20070196277A1, “Compositions and Methods for the Direct Therapy of Tumors” (priority 2006, published 2007).
Like-named read-outs stand apart in the source and are kept apart here.

Tests used:
[1] = test system: Walker Carcinosarcoma 256 tumors; details: cited from earlier work
[2] = test system: intracerebral T9 gliosarcoma tumors; details: same dose delivered systemically; cited from earlier work
[3] = cited from earlier work
[4] = cited from earlier work; remark: listed apart in the source
[5] = target: T1, dihydrouracil dehydrogenase (Homo sapiens, UniProt Q12882); details: cited from earlier work
T1 sequence (Q12882 4-1025): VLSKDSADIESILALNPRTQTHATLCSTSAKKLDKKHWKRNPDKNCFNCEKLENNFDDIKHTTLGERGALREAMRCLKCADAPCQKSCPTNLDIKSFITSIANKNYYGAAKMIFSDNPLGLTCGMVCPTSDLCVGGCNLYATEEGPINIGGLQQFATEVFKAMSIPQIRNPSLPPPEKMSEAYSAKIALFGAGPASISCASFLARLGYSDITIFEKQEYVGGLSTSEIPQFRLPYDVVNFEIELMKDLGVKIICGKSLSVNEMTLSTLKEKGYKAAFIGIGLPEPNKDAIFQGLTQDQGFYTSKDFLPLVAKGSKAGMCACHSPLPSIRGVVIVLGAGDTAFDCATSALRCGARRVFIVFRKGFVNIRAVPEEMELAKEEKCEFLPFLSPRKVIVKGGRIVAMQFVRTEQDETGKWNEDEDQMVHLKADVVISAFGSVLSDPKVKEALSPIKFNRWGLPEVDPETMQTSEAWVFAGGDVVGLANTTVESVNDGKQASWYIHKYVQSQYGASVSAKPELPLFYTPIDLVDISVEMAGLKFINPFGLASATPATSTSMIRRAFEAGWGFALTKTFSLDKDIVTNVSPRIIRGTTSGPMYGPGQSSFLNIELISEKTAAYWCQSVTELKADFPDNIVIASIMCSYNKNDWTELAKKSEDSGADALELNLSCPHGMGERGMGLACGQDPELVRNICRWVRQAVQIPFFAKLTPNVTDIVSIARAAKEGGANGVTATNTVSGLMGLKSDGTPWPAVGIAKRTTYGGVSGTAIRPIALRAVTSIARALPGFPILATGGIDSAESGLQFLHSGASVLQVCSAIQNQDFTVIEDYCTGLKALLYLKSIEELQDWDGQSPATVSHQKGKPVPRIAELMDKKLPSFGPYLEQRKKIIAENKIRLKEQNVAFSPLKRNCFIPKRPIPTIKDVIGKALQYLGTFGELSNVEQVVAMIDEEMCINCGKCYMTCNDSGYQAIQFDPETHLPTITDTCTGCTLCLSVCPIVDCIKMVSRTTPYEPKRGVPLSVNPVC

[6] = cited from earlier work; remark: listed apart in the source
[7] = powder, light-protected container, room temperature; cited from earlier work
marrow cells = details: in vitro human bone marrow assay; cited from earlier work
rat brain = test system: rat brain
From the text: This conversion is based upon comparison of the mass of the rat brain (approximately 2.5 gms) and human brain (approximately 1350 gms).

cat brain = test system: cat brain
From the text: This conversion is based upon comparison of the cat brain (approximately 20 gms) and human brain (approximately 1350 gms).

[8] = cited from earlier work; remark: listed apart in the source

Which antitumor efficacy ([1]; aqueous vehicle, injected intratumorally) does the source give for O=NN(CCCl)C(=O)NCCCl [BCNU, 1,3-bis(2-chloroethyl)-1-nitrosourea] here?
Its antitumor efficacy is “had antitumor efficacy, but far less than the same BCNU dose formulated in ethanol”.

What about the therapeutic benefit ([1]; systemic administration, same dose (25 mg/kg)) of the same compound?
The therapeutic benefit was “no therapeutic benefit”.

What about the cures [2] of the same compound?
The cures was “no cures”.

And the “increase in life span” value [2]?
The value was “no increase in life span”.

And the “half life in serum” value [3]?
Its value is “about 15 minutes”.

What about the blood-brain barrier passage ([4]; in vivo) of the same compound?
The blood-brain barrier passage was “crosses the blood-brain barrier quite effectively”.

What about the “total dose excreted as respiratory CO2” value ([4]; in vivo) of the same compound?
The value was “about 10%”.

What about the “intact BCNU in serum” value ([4]; intravenous, after 60 minutes) of the same compound?
The value was “little intact BCNU”.

What does the source list for Oc1ncc(I)c(O)n1 [IUra, 2,4-dihydroxy-5-iodopyrimidine]?
inhibition of dihydrouracil dehydrogenase [5]: competitive inhibitor; apparent Michaelis constant of disappearance from plasma ([6]; after the infusion, nonlinear): 30 mumol/L; maximum plasma IUra concentration ([6]; following infusion of 500 to 1200 mg/m^2 of IdUrd): 100 mumol/L; plasma IUra relative to simultaneous IdUrd plasma concentration ([6]; following infusion of IdUrd): about 10 times; storage stability [7]: 1 year

Which “cytotoxicity to marrow cells relative to IUra” value (marrow cells) does the source give for O=c1[nH]c(=O)n([C@H]2C[C@H](O)[C@@H](CO)O2)cc1I [IdUrd, 5-iodo-2′-deoxyuridine] here?
The value was “at least 100 times”.

With CCO [ethanol] as the compound, how does the “maximally tolerated volume extrapolated to normal human brain” value (rat brain; from rat, by brain mass 2.5 gms vs 1350 gms) read?
Its value is 10.8 mL.

And the “maximally tolerated volume with no apparent neurologic deficit” value (rat brain; rat brain)?
Its value is 20 μl.

What about the “maximally tolerated volume with no apparent neurologic deficit” value (cat brain; cat brain, unpublished data) of the same compound?
Its value is 0.4 ml.

And the “maximally tolerated volume extrapolated to normal human brain” value (cat brain; from cat, by brain mass 20 gms vs 1350 gms)?
Its value is 27 mL.

Which “plasma elimination half-time, first phase” value ([8]; biphasic elimination) does the source give for CC(C)NC(C)Cc1ccc(I)cc1 (stereo not drawn) [iofetamine, N-isopropyl-p-iodoamphetamine] here?
Its value is 1.6 ± 1.2 h.

And the “plasma elimination half-time, second phase” value ([8]; biphasic elimination)?
The value was 10.9 ± 6.1 h.

And the blood-brain barrier passage ([8]; in vivo)?
Its blood-brain barrier passage is “crosses the intact blood-brain barrier”.
